One compound from PMC2222991 (The Journal of General Physiology, 1999) can be followed below.

One assay has as its system RTC. Briefly: inside-out patch macroscopic current, Hill fit. Type of assay: cell-based, Bos taurus / Caenorhabditis elegans. To be noted: read-out: K 1/2; agonist; divalent-free solution pH 7.2; -80 or -100 mV; n = 8.
The subject of the next assay is RTL1. Kind of assay: inside-out patch macroscopic current, Hill fit. The format is cell-based, Bos taurus / Caenorhabditis elegans. Particulars: read-out: K 1/2; agonist; divalent-free solution pH 7.2; -80 or -100 mV; n = 4.
The next assay has as its system TRC. Kind of assay: inside-out patch macroscopic current, Hill fit. The format is cell-based, Caenorhabditis elegans / Bos taurus. To be noted: read-out: K 1/2; agonist; divalent-free solution pH 7.2; -80 or -100 mV; n = 4.
For a further assay, the system named is RTB. Briefly: inside-out patch macroscopic current, Hill fit. The format is cell-based, Bos taurus / Caenorhabditis elegans. Particulars: read-out: K 1/2; agonist; divalent-free solution pH 7.2; -80 or -100 mV; n = 5.
Another assay has as its system ROPTL2. Briefly: inside-out patch macroscopic current, Hill fit. To be noted: read-out: K 1/2; agonist; divalent-free solution pH 7.2; -80 or -100 mV; n = 4. Type of assay: cell-based, Bos taurus / Caenorhabditis elegans / Ictalurus punctatus.
The subject of the next assay is RTL2. Briefly: inside-out patch macroscopic current, Hill fit. The format is cell-based, Bos taurus / Caenorhabditis elegans. Particulars: read-out: K 1/2; agonist; divalent-free solution pH 7.2; -80 or -100 mV; n = 4.
Assay [1] deals with T1, TAX-4 (C. elegans tax-4 CNG channel subunit) (Caenorhabditis elegans, UniProt Q03611).
T1 sequence (Q03611 1-733): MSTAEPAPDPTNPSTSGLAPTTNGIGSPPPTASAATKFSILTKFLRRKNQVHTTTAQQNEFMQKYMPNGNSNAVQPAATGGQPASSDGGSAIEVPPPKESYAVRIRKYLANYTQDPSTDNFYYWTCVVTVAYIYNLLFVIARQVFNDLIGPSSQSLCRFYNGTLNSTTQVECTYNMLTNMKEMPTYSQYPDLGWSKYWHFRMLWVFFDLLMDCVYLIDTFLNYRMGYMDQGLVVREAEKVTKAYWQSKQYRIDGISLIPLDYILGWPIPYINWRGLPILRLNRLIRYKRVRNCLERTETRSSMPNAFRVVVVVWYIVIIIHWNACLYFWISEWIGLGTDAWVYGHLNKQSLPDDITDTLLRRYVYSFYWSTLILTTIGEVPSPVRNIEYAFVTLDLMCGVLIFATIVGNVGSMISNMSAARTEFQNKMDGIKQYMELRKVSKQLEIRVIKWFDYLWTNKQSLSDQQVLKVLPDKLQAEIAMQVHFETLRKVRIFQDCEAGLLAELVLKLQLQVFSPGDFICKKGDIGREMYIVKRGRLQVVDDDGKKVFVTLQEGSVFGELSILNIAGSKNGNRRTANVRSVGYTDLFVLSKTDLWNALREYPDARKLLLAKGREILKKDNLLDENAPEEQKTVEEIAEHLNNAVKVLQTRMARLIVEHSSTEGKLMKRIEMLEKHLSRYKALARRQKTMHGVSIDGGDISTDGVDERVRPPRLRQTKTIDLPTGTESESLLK
Kind of assay: inside-out patch macroscopic current, Hill fit. The format is cell-based.

A further assay deals with RTL. Kind of assay: inside-out patch macroscopic and single-channel currents, Hill fit. Type of assay: cell-based, Bos taurus / Caenorhabditis elegans. To be noted: read-out: K 1/2; agonist; divalent-free solution pH 7.2; -80 or -100 mV; n = 8.

Turning to `Nc1nc2c(ncn2[C@@H]2O[C@@H]3COP(=O)(O)O[C@H]3[C@H]2O)c(=O)[nH]1` [cGMP], the EC50 in the assay with RTC was 1.3 µM; in the assay with RTL1 it was 24 µM; in the assay with TRC, 4.7 µM; in the assay on RTB, 63 µM; in the assay with ROPTL2 it was 3 µM; in the assay with RTL2, 4 µM. Further, the figures for the EC50 (in assay [1]; with RTL) were 0.4 µM and 1 µM, respectively.
